MIC data for 8 compounds are collected here from DBAASP.

Converted amounts (≈) assume the structure as drawn. “And” between values parts separate entries of the source, which are not always exact repeats. Identical values can stand only once.

Some test systems named below: Staphylococcus aureus MR; Escherichia coli ML-35; Bacillus megaterium Bm11; Aureobasidium pullulans; Escherichia coli UB1005.
Test in all cases: ≥ marks a high value that may be exact or a test limit, other limits are often not marked, values filed in µg/mL are converted to µM
Assay [1] has as its system Staphylococcus aureus Newman.
Assay [2] has as its system Staphylococcus epidermidis ATCC 35984.
Assay [3] concerns Streptococcus mutans JM11.
Assay [4] deals with Klebsiella pneumoniae KAY 2026.
Assay [5] deals with Escherichia coli DH5alpha.
Assay [6] concerns Pseudomonas aeruginosa ATCC 15692.
The test system of assay [7] is Batrachochytrium dendrobatidis.
Assay [8] deals with Klebsiella pneumoniae ATCC 13883.
Assay [9] relates to Escherichia coli KpC+001812446.
Assay [10] concerns Staphylococcus aureus ATCC 25923.
Assay [11] concerns Klebsiella pneumoniae KpC+001825971.
Assay [12] relates to Escherichia coli KpC+002101123.
Assay [13] has as its system Escherichia coli ATCC 25922.
Assay [14] has as its system Pseudomonas aeruginosa ATCC 27853.
Assay [15] relates to Salmonella enterica subsp. enterica serovar Typhimurium ATCC 14028.
Assay [16] concerns Staphylococcus aureus 710A.
Assay [17] has as its system Staphylococcus aureus ATCC 9144.
Assay [18] concerns Candida albicans ATCC 10231.
Assay [19] deals with Corynebacterium glutamicum ATCC 13032.
Assay [20] has as its system Staphylococcus xylosus DSM 20287.
The test system of assay [21] is Franconibacter helveticus DSM 18390.
Assay [22] concerns Bacillus subtilis DSM 347.
The test system of assay [23] is Escherichia coli DSM 1116.
Assay [24] deals with Acinetobacter baumannii KCTC 2508.
In assay [25] the test system is Bacillus subtilis KCTC 2217.
In assay [26] the test system is Salmonella enterica subsp. enterica CMCC 47020.
The subject of assay [27] is Staphylococcus aureus CMCC 26074.
For assay [28], the system named is Listeria monocytogenes CMCC 54004.
Assay [29] concerns Salmonella enterica subsp. enterica serovar Typhimurium C77-31.
Assay [30] concerns Cronobacter sakazakii ATCC 29544.
Assay [31] relates to Bacillus cereus CMCC 6303.
Assay [32] concerns Salmonella enterica subsp. enterica serovar Pullorum C79-13.
Assay [33] concerns Salmonella enterica subsp. enterica serovar Typhi CMCC 50071.

As for `CC[C@H](C)[C@H](NC(=O)[C@@H](N)Cc1ccccc1)C(=O)N[C@@H](CCCN=C(N)N)C(=O)N[C@@H](CCCCN)C(=O)N[C@@H](Cc1ccccc1)C(=O)N[C@@H](CC(C)C)C(=O)N[C@@H](CCCCN)C(=O)N[C@@H](CCCCN)C(=O)N[C@@H](Cc1c[nH]c2ccccc12)C(=O)N[C@@H](CC(C)C)C(=O)N[C@@H](CC(C)C)C(N)=O` [FIRKFLKKWLL], the MIC in assay [1] was 5.62 µM (≈ 8.39 µg/mL); in assay [2], 5.11 µM (≈ 7.62 µg/mL); in assay [3], 2.86 µM (≈ 4.26 µg/mL); in [4], 2.98 µM (≈ 4.44 µg/mL); in [5], 5.47 µM (≈ 8.16 µg/mL); in assay [6], 14.4 µM (≈ 21.5 µg/mL).
`CC[C@H](C)[C@H](NC(=O)[C@@H](NC(=O)[C@@H]1CCCN1C(=O)[C@H](CC(C)C)NC(=O)[C@@H](N)Cc1ccccc1)[C@@H](C)CC)C(=O)N[C@@H](C)C(=O)N[C@@H](CO)C(=O)N[C@@H](CC(C)C)C(=O)N[C@@H](CC(C)C)C(=O)NCC(=O)N[C@@H](CCCCN)C(=O)N[C@@H](CC(C)C)C(=O)N[C@@H](CC(C)C)C(N)=O` [FLPIIASLLGKLL]: the minimum inhibitory concentration (MIC) in [7] worked out at 28.6 µM (≈ 40 µg/mL).
With `CC[C@H](C)[C@H](NC(=O)[C@@H](NC(=O)[C@H](CO)NC(=O)[C@H](C)NC(=O)[C@@H](NC(=O)[C@H](CCCCN)NC(=O)[C@H](CCCCN)NC(=O)[C@@H](NC(=O)[C@@H](NC(=O)[C@H](CC(=O)O)NC(=O)[C@H](Cc1ccccc1)NC(=O)[C@H](CC(C)C)NC(=O)CNC(=O)[C@H](Cc1cnc[nH]1)NC(=O)CNC(=O)CN)C(C)C)[C@@H](C)CC)C(C)C)C(C)C)C(=O)NCC(=O)NCC(=O)N[C@@H](CC(C)C)C(N)=O` [GGHGLFDVIKKVASVIGGL], the MIC was at least 34 µM in assay [8]; at least 34 µM in assay [9]; 17 µM (≈ 31.7 µg/mL) in the assay with Staphylococcus aureus MR; 9 µM (≈ 16.8 µg/mL) in assay [10]; at least 34 µM in assay [11]; 9 µM (≈ 16.8 µg/mL) in assay [12]. Besides, the minimum inhibitory concentration (MIC) was 34 µM (≈ 63.5 µg/mL) in [13] and above 34 µM in [14].
As for `CC[C@H](C)[C@H](NC(=O)[C@H](CCCCN)NC(=O)[C@H](CCCCN)NC(=O)[C@H](CC(C)C)NC(=O)[C@H](CC(C)C)NC(=O)CN)C(=O)NCC(=O)N[C@@H](CCCCN)C(=O)N[C@@H](CCCCN)C(=O)N[C@@H](C)C(=O)N[C@@H](CCCCN)C(=O)N[C@@H](CCCCN)C(=O)N[C@@H](C)C(=O)NCC(=O)N[C@@H](CCCCN)C(=O)N[C@@H](CCCCN)C(=O)N[C@@H](CC(C)C)C(=O)NCC(=O)N[C@@H](Cc1ccc(O)cc1)C(N)=O` [GLLKKIGKKAKKAGKKLGY], the minimal inhibitory concentration (MIC) against Escherichia coli ML-35 is 4 µM (≈ 8.11 µg/mL); in assay [15], above 32 µM; in the assay on Bacillus megaterium Bm11 it was at least 32 µM; in assay [14], 16 µM (≈ 32.5 µg/mL); in assay [16], at least 32 µM.
With `CC(C)[C@H](NC(=O)[C@H](CCCCN)NC(=O)[C@H](C)NC(=O)[C@@H](NC(=O)[C@@H](NC(=O)[C@H](CCCN=C(N)N)NC(=O)[C@H](CCCN=C(N)N)NC(=O)[C@H](Cc1c[nH]c2ccccc12)NC(=O)[C@H](Cc1c[nH]c2ccccc12)NC(=O)CN)[C@@H](C)O)C(C)C)C(=O)N[C@@H](CCCN=C(N)N)C(=O)N[C@@H](CCCCN)C(N)=O` [GWWRRTVAKVRK], the MIC with Aureobasidium pullulans worked out at 12.5 µM (≈ 19.3 µg/mL); in [13], 3.1 µM (≈ 4.78 µg/mL); in assay [17], 12.5 µM (≈ 19.3 µg/mL); in assay [18] it was 6.3 µM (≈ 9.71 µg/mL); in assay [19] it was 0.4 µM (≈ 0.617 µg/mL); in [14] it was 1.6 µM (≈ 2.47 µg/mL).
Regarding `CC[C@H](C)[C@H](N)C(=O)N[C@@H](C)C(=O)NCC(=O)N[C@@H](CCCCN)C(=O)N[C@H](C(=O)N[C@@H](C)C(=O)N[C@@H](CCCCN)C(=O)N[C@H](C(=O)N[C@@H](C)C(=O)NCC(=O)N[C@@H](CCCCN)C(=O)N[C@H](C(=O)N[C@@H](C)C(=O)N[C@@H](CCCCN)C(=O)N[C@H](C(=O)N[C@@H](C)C(=O)NCC(=O)N[C@@H](CCCCN)C(=O)N[C@H](C(=O)N[C@@H](C)C(=O)N[C@@H](CCCCN)C(=O)N[C@H](C(=O)N[C@@H](C)C(=O)NCC(=O)N[C@@H](CCCCN)C(=O)N[C@H](C(=O)N[C@@H](C)C(N)=O)[C@@H](C)CC)[C@@H](C)CC)[C@@H](C)CC)[C@@H](C)CC)[C@@H](C)CC)[C@@H](C)CC)[C@@H](C)CC` [IAGKIAKIAGKIAKIAGKIAKIAGKIA], the MIC in [20] amounted to 0.764 µM (≈ 2 µg/mL); in assay [21] it was 1.08 µM (≈ 2.83 µg/mL); in assay [22], 1.08 µM (≈ 2.83 µg/mL); in [23], 2.16 µM (≈ 5.65 µg/mL).
Turning to `CC(C)C[C@H](NC(=O)[C@H](CCCCN)NC(=O)[C@H](CCCCN)NC(=O)[C@H](CC(C)C)NC(=O)[C@H](CC(C)C)NC(=O)[C@H](CCCCN)NC(=O)[C@H](CCCCN)NC(=O)[C@H](CC(C)C)NC(=O)[C@H](CC(C)C)NC(=O)[C@@H]1CCCN1C(=O)[C@H](CCCCN)NC(=O)[C@@H](N)CCCCN)C(N)=O` [KKPLLKKLLKKL], the MIC is 25 µM (≈ 36.2 µg/mL) in assay [24]; 1.56 µM and > 0.78 µM in [10]; 1.56 µM (≈ 2.26 µg/mL) in assay [25].
In the case of `CC[C@H](C)[C@H](NC(=O)[C@H](CCCN=C(N)N)NC(=O)[C@H](CCCCN)NC(=O)[C@H](Cc1c[nH]c2ccccc12)NC(=O)[C@@H](N)CCCN=C(N)N)C(=O)N[C@H](C(=O)N[C@H](C(=O)N[C@H](C(=O)N[C@@H](CCCN=C(N)N)C(=O)N[C@@H](CCCCN)C(=O)N[C@@H](CCCN=C(N)N)C(=O)N[C@@H](CCCN=C(N)N)C(N)=O)[C@@H](C)CC)C(C)C)C(C)C` [RWKRIVVIRKRR], the MIC is at least 256 µM in [26]; at least 256 µM in assay [27]; at least 128 µM in [28]; at least 256 µM against Escherichia coli UB1005; above 256 µM in assay [10]; at least 256 µM in assay [29]. For the same compound, the minimum inhibitory concentration (MIC) in assay [30] is at least 256 µM; in [31] it was at least 128 µM; in assay [15] it was 128 µM (≈ 213 µg/mL); in [32] it was at least 256 µM; in [33], at least 128 µM.

The term MIC denotes the least concentration at which growth counts as inhibited. Low readings indicate a more susceptible organism, high ones a less susceptible organism.
